Measured values as given in patent US12655116B2, “Substituted isophthalic acid diamides” (Bayer Aktiengesellschaft, priority 2020, dated 2026).

How the values were obtained:
[1] = system: ABUTH; assay: Pre-emergence herbicidal action against ABUTH; assay type: in vivo, Abutilon theophrasti; conditions: Abutilon theophrasti, 504 h; for pest or weed control at 80 g/ha: scored visually after 3 weeks vs untreated controls (100% = plants have died, 0% = like control plants); for pest or weed control at 20 g/ha: dosage 20 g/ha, scored visually after 3 weeks vs untreated controls, 100% = plants have died, 0% = like control plants, read-out: Pre-emergence action against ABUTH (herbicidal activity in percent)
In short: (§1)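 Herbicidal effect was assessed 3 weeks after treatment by visual comparison with untreated controls, 100% denoting dead plants. Aqueous WP or EC preparations had been applied at 600 to 800 l/ha with 0.2% wetting agent to the soil covering freshly sown seeds.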

[2] = system: ALOMY; assay: Pre-emergence herbicidal action against ALOMY; assay type: in vivo, Alopecurus myosuroides; conditions: Alopecurus myosuroides, 504 h; 80 g/ha, pre-emergence, scored visually after 3 weeks vs untreated controls (100% = plants have died, 0% = like control plants)
In short: as §1

[3] = system: AMARE; assay: Pre-emergence herbicidal action against AMARE; assay type: in vivo, Amaranthus retroflexus; conditions: Amaranthus retroflexus, 504 h, scored visually after 3 weeks vs untreated controls, 100% = plants have died, 0% = like control plants
In short: as §1

[4] = system: ECHCG; assay: Pre-emergence herbicidal action against ECHCG; assay type: in vivo, Echinochloa crus-galli; conditions: Echinochloa crus-galli, 504 h, 80 g/ha
In short: as §1

[5] = system: LOLRI; assay: Pre-emergence herbicidal action against LOLRI; assay type: in vivo, Lolium rigidum; conditions: Lolium rigidum, 504 h, 80 g/ha
In short: as §1

[6] = system: MATIN; assay: Pre-emergence herbicidal action against MATIN; assay type: in vivo, Matricaria inodora; conditions: Tripleurospermum inodorum, 504 h; for pest or weed control at 20 g/ha: dosage 20 g/ha; for pest or weed control at 80 g/ha: dosage 80 g/ha
In short: as §1

[7] = system: PHBPU; assay: Pre-emergence herbicidal action against PHBPU; assay type: in vivo, Pharbitis purpurea; conditions: Ipomoea purpurea, 504 h, dosage 80 g/ha
In short: as §1

[8] = system: POLCO; assay: Pre-emergence herbicidal action against POLCO; assay type: in vivo, Polygonum convolvulus; conditions: Fallopia convolvulus, 504 h, dosage 80 g/ha
In short: as §1

[9] = system: SETVI; assay: Pre-emergence herbicidal action against SETVI; assay type: in vivo, Setaria viridis; conditions: Setaria viridis, 504 h, dosage 80 g/ha
In short: as §1

[10] = system: VERPE; assay: Pre-emergence herbicidal action against VERPE; assay type: in vivo, Veronica persica; conditions: Veronica persica, 504 h
In short: as §1

[11] = system: VIOTR; assay: Pre-emergence herbicidal action against VIOTR; assay type: in vivo, Viola tricolor; conditions: Viola tricolor, 504 h; for pest or weed control at 20 g/ha: dosage 20 g/ha; for pest or weed control at 80 g/ha: dosage 80 g/ha
In short: as §1

[12] = system: DIGSA; assay: Pre-emergence herbicidal action against DIGSA; assay type: in vivo, Digitaria sanguinalis; conditions: Digitaria sanguinalis, 504 h; for pest or weed control at 20 g/ha: dosage 20 g/ha; for pest or weed control at 80 g/ha: dosage 80 g/ha
In short: as §1

[13] = system: ABUTH; assay: Post-emergence herbicidal action against ABUTH; assay type: in vivo, Abutilon theophrasti; conditions: Abutilon theophrasti, 504 h, visual assessment about 3 weeks after treatment vs untreated controls
In short: (§2)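 Herbicidal effect was scored visually in percent after about 3 weeks in the greenhouse. Plants had been raised in sandy loam and treated post-emergence at the one-leaf stage with formulated compound at 600 to 800 l/ha water plus 0.2% wetting agent.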

[14] = system: ALOMY; assay: Post-emergence herbicidal action against ALOMY; assay type: in vivo, Alopecurus myosuroides; conditions: Alopecurus myosuroides, 504 h, visual assessment about 3 weeks after treatment vs untreated controls; for pest or weed control at 5 g/ha: dosage 5 g/ha; for pest or weed control at 20 g/ha: dosage 20 g/ha
In short: as §2

[15] = system: AMARE; assay: Post-emergence herbicidal action against AMARE; assay type: in vivo, Amaranthus retroflexus; conditions: Amaranthus retroflexus, 504 h, 20 g/ha, visual assessment about 3 weeks after treatment, 100% = plants have died, 0% = like control plants
In short: as §2

[16] = system: AVEFA; assay: Post-emergence herbicidal action against AVEFA; assay type: in vivo, Avena fatua; conditions: Avena fatua, 504 h, 20 g/ha, visual assessment about 3 weeks after treatment, 100% = plants have died, 0% = like control plants
In short: as §2

[17] = system: ECHCG; assay: Post-emergence herbicidal action against ECHCG; assay type: in vivo, Echinochloa crus-galli; conditions: Echinochloa crus-galli, 504 h; for pest or weed control at 20 g/ha: dosage 20 g/ha
In short: as §2

[18] = system: LOLRI; assay: Post-emergence herbicidal action against LOLRI; assay type: in vivo, Lolium rigidum; conditions: Lolium rigidum, 504 h, dosage 20 g/ha
Experimental: Seeds of monocotyledonous and dicotyledonous weed and crop plants are laid out in sandy loam soil in wood-fiber pots, covered with soil and cultivated in a greenhouse under good growth conditions. 2 to 3 weeks after sowing, the test plants are treated at the one-leaf stage. The compounds of the invention, formulated in the form of wettable powders (WP) or as emulsion concentrates (EC), are then sprayed onto the green parts of the plants in the form of an aqueous suspension or emulsion at a water application rate equivalent to 600 to 800 l/ha, with addition of 0.2% wetting agent. After the test plants have been left to stand in the greenhouse under optimal growth conditions for about 3 weeks, the action of the preparations is assessed visually in comparison to untreated controls (herbicidal action in percent (%): 100% activity=the plants have died, 0% activity=like control plants). […] The tables below illustrate, in an illustrative manner, the post-emergence herbicidal action of the compounds of the invention, the herbicidal activity being stated in percent.

[19] = system: MATIN; assay: Post-emergence herbicidal action against MATIN; assay type: in vivo, Matricaria inodora; conditions: Tripleurospermum inodorum, 504 h, dosage 20 g/ha
In short: as §2

[20] = system: PHBPU; assay: Post-emergence herbicidal action against PHBPU; assay type: in vivo, Pharbitis purpurea; conditions: Ipomoea purpurea, 504 h; for pest or weed control at 20 g/ha: dosage 20 g/ha
In short: as §2

[21] = system: SETVI; assay: Post-emergence herbicidal action against SETVI; assay type: in vivo, Setaria viridis; conditions: Setaria viridis, 504 h, dosage 20 g/ha
In short: as §2

[22] = system: VERPE; assay: Post-emergence herbicidal action against VERPE; assay type: in vivo, Veronica persica; conditions: Veronica persica, 504 h
In short: as §2

[23] = system: VIOTR; assay: Post-emergence herbicidal action against VIOTR; assay type: in vivo, Viola tricolor; conditions: Viola tricolor, 504 h, 20 g/ha
In short: as §2

[24] = system: DIGSA; assay: Post-emergence herbicidal action against DIGSA; assay type: in vivo, Digitaria sanguinalis; conditions: Digitaria sanguinalis, 504 h
In short: as §2

[25] = system: AVEFA; assay: Pre-emergence herbicidal action against AVEFA; assay type: in vivo, Avena fatua; conditions: Avena fatua, 504 h; 80 g/ha, pre-emergence
In short: as §1

Q: What does the source list for `CNC(=O)c1c(C(F)(F)C(F)(F)F)ccc(C(=O)Nc2nnnn2C)c1Cl` [Example 1-165]?
A: pest or weed control at 80 g/ha [1]: 100%; pest or weed control at 20 g/ha [1]: 90%; pest or weed control at 80 g/ha [2]: 100%; pest or weed control at 20 g/ha [3]: 100%; pest or weed control at 80 g/ha [3]: 100%; pest or weed control at 80 g/ha [4]: 100%; pest or weed control at 80 g/ha [5]: 80%; pest or weed control at 20 g/ha [6]: 100%; pest or weed control at 80 g/ha [6]: 100%; pest or weed control at 80 g/ha [7]: 100%; pest or weed control at 80 g/ha [8]: 90%; pest or weed control at 80 g/ha [9]: 100%; pest or weed control at 20 g/ha ([10]; dosage 20 g/ha): 80%; pest or weed control at 80 g/ha ([10]; dosage 80 g/ha): 100%; pest or weed control at 20 g/ha [11]: 90%; pest or weed control at 80 g/ha [11]: 100%; pest or weed control at 20 g/ha [12]: 100%; pest or weed control at 80 g/ha [12]: 100%; pest or weed control at 5 g/ha ([13]; dosage 5 g/ha): 90%; pest or weed control at 20 g/ha ([13]; dosage 20 g/ha): 90%; pest or weed control at 5 g/ha [14]: 90%; pest or weed control at 20 g/ha [14]: 100%; pest or weed control at 20 g/ha [15]: 90%; pest or weed control at 20 g/ha [16]: 90%; pest or weed control at 20 g/ha [17]: 90%; pest or weed control at 20 g/ha [18]: 80%; pest or weed control at 20 g/ha [19]: 80%; pest or weed control at 5 g/ha ([20]; dosage 5 g/ha): 90%; pest or weed control at 20 g/ha [20]: 90%; pest or weed control at 20 g/ha [21]: 90%; pest or weed control at 5 g/ha ([22]; 5 g/ha): 80%; pest or weed control at 20 g/ha [22]: 80%; pest or weed control at 20 g/ha [23]: 80%; pest or weed control at 5 g/ha [24]: 90%; pest or weed control at 20 g/ha [24]: 90%

Q: With `Cn1nnnc1NC(=O)c1ccc(Br)c(C(=O)NCC(F)(F)F)c1Cl` [Example 1-181] as the molecule, how does the pest or weed control at 80 g/ha [1] read?
A: The pest or weed control at 80 g/ha was 100%.

Q: And the pest or weed control at 20 g/ha [1]?
A: The pest or weed control at 20 g/ha was 90%.

Q: What about the pest or weed control at 80 g/ha [2] of the same molecule?
A: The pest or weed control at 80 g/ha was 100%.

Q: What about the pest or weed control at 20 g/ha [3] of the same molecule?
A: The pest or weed control at 20 g/ha was 100%.

Q: What about the pest or weed control at 80 g/ha [3] of the same molecule?
A: Its pest or weed control at 80 g/ha is 100%.

Q: And the pest or weed control at 80 g/ha [25]?
A: Its pest or weed control at 80 g/ha is 80%.

Q: And the pest or weed control at 80 g/ha [4]?
A: The pest or weed control at 80 g/ha was 100%.

Q: And the pest or weed control at 80 g/ha [5]?
A: Its pest or weed control at 80 g/ha is 80%.

Q: And the pest or weed control at 20 g/ha [6]?
A: The pest or weed control at 20 g/ha was 90%.

Q: What about the pest or weed control at 80 g/ha [6] of the same molecule?
A: Its pest or weed control at 80 g/ha is 100%.

Q: And the pest or weed control at 80 g/ha [7]?
A: The pest or weed control at 80 g/ha was 80%.

Q: And the pest or weed control at 80 g/ha [9]?
A: The pest or weed control at 80 g/ha was 100%.

Q: What about the pest or weed control at 20 g/ha [11] of the same molecule?
A: The pest or weed control at 20 g/ha was 100%.

Q: What about the pest or weed control at 80 g/ha [11] of the same molecule?
A: The pest or weed control at 80 g/ha was 100%.

Q: And the pest or weed control at 20 g/ha [12]?
A: Its pest or weed control at 20 g/ha is 100%.

Q: What about the pest or weed control at 80 g/ha [12] of the same molecule?
A: Its pest or weed control at 80 g/ha is 100%.

Q: And the pest or weed control at 5 g/ha [14]?
A: The pest or weed control at 5 g/ha was 80%.

Q: And the pest or weed control at 20 g/ha [14]?
A: The pest or weed control at 20 g/ha was 100%.

Q: What about the pest or weed control at 20 g/ha [15] of the same molecule?
A: Its pest or weed control at 20 g/ha is 100%.

Q: What about the pest or weed control at 20 g/ha [16] of the same molecule?
A: Its pest or weed control at 20 g/ha is 90%.

Q: And the pest or weed control at 5 g/ha ([17]; dosage 5 g/ha)?
A: The pest or weed control at 5 g/ha was 80%.

Q: And the pest or weed control at 20 g/ha [17]?
A: Its pest or weed control at 20 g/ha is 80%.

Q: What about the pest or weed control at 20 g/ha [18] of the same molecule?
A: The pest or weed control at 20 g/ha was 80%.

Q: And the pest or weed control at 20 g/ha [20]?
A: Its pest or weed control at 20 g/ha is 90%.

Q: What about the pest or weed control at 20 g/ha [21] of the same molecule?
A: Its pest or weed control at 20 g/ha is 90%.

Q: What about the pest or weed control at 20 g/ha [22] of the same molecule?
A: Its pest or weed control at 20 g/ha is 90%.

Q: What about the pest or weed control at 5 g/ha [24] of the same molecule?
A: Its pest or weed control at 5 g/ha is 90%.

Q: What about the pest or weed control at 20 g/ha [24] of the same molecule?
A: The pest or weed control at 20 g/ha was 90%.
